Laboratory results from US20050124607A1, “5-Substituted quinazolinone compounds useful as alpha 1A/B adrenergic receptor antagonists” (priority 2003, published 2005).

System: hypogastric nerve stimulation-induced increases in intraurethral pressure and phenylephrine-induced increases in diastolic blood pressure
Assay: In vivo intraurethral and blood pressure assay in anesthetized dog
Settings: anesthetized male mongrel dog, i.v. bolus, increasing doses
Procedure: The following describes an in vivo assay for measuring the relative effect of test compounds on hypogastric nerve stimulation-induced increases in intraurethral pressure and phenylephrine-induced increases in diastolic blood pressure in anesthetized dog.
Male Mongrel dogs (10 to 20 kg) were-fasted for 12 to 18 hours and anesthetized with phenobarbital sodium (36 mg/kg, i.v.). An endotracheal tube was inserted and thereafter the lungs were mechanically ventilated with room air. The right femoral vein was isolated and cannulated with two polyethylene cannulae, one for the administration of a continuous infusion of phenobarbital sodium (5 to 10 mg/kg/hr) and the other for bolus administration of test substances. The right femoral artery was isolated and cannulated to the abdominal aorta with a fluid filled polyethylene cannula connected to an external pressure transducer for monitoring diastolic aortic pressure (DAP). The bladder was exposed via a ventral midline abdominal incision and emptied of urine through a 22 gauge needle. The bladder was cannulated through a stab incision with a water filled balloon catheter connected to an external pressure transducer for monitoring prostatic intraurethral pressure (IUP). The right hypogastric nerve (HGN) was carefully isolated and attached to a Dastre's electrode for nerve stimulation. […]

## COc1cc2nc(N3CCN(C(=O)c4ccco4)CC3)nc(N)c2cc1OC [prazosin]
  inhibition of HGN stimulation-induced increases in IUP and PE-induced increases in DAP: inhibited increases in IUP and DAP in similar fashion
